# Source: patent publication US20240246937A1 (MERCK SHARP & DOHME LLC, priority 2021, published 2024)
# Molecular target: recombinant IL4I1 (Homo sapiens (Human), UniProt Q96RQ9)
# Test: IL4I1 Enzymatic Assay (Amplex Red/HRP coupled fluorescence detection of H2O2)
# Type: biochemical
# Settings: 240 min; recombinant IL4I1, four-hour pre-incubation with compound
# Protocol: Interleukin 4 inducible protein 1 (IL4I1) is an L-amino oxidase that catalyzes the oxidation of aromatic residues (Phe, Trp and Tyr): L-amino acid+H2O+O2→2-oxo acid+NH3+H2O2. Equal molar of H2O2 and the corresponding alpha-ketoacid are produced when IL4I1 and substrate are added. In this assay, the hydrogen peroxide generated by IL4I1 is then detected through a coupled reaction with Amplex® Red (10-acetyl-3,7-dihydroxyphenoxazine) and horseradish peroxidase (HRP) to produce resorufin product that could be detected in the form of fluorescence signals. The assessment of the inhibitory effect of small molecules (EC50) on IL4I1 is measured by the effectiveness of the compounds to inhibit the production of H2O2.
# Using this assay, the potency (EC50) of each compound was determined from a ten-point (1:3 serial dilution) titration curve using the following outlined procedure. To each well of a black flat-bottom Greiner (Cat #781076) 384 well-plate, 25 nL of compound (0.1% DMSO in final assay volume of 25 μL) was dispensed, followed by the addition of 12.5 μL of 1× assay buffer (50 mM Hepes 7.0 and 0.005% Tween20 (Sigma, Cat #P8341; low peroxide grade)) containing 2 nM of recombinant IL4I1 (R&D Systems, Cat #5684-AO-020). Plates were placed in an ambient temperature humidified chamber for a four-hour pre-incubation with compound. Subsequently, each reaction was initiated by the addition of 12.5 μL 1× assay buffer containing 2 mM of each aromatic amino acids (Phe/Tyr/Trp), 0.1 mM Amplex Red and 2 U/mL of HRP. The final reaction in each well of 25 μL consisted of 1 nM of IL4I1, 1 mM of each residues (Phe, Tyr and Trp), 0.05 mM Amplex Red and 1 U/mL of HRP. It should be noted that the concentrations of Amplex Red and HRP used here were in excess such that the conversion of H2O2 to resorufin product occurred instantaneously and was non-rate limiting. Reactions were allowed to proceed for 120 minutes followed by fluorescence readout on a Spectramax with the following set parameters: 544 nm excitation/590 nm emission, 570 nm cutoff (EnVision is an alternative reader). Dose-response curves were generated by plotting percent effect (% product conversion; Y-axis) vs. Log10 compound concentrations (X-axis). EC50 values were calculated using a non-linear regression, four-parameters sigmoidal dose-response model and are shown in Potency Table 1.
# Sequence of recombinant IL4I1 (Q96RQ9 22-567): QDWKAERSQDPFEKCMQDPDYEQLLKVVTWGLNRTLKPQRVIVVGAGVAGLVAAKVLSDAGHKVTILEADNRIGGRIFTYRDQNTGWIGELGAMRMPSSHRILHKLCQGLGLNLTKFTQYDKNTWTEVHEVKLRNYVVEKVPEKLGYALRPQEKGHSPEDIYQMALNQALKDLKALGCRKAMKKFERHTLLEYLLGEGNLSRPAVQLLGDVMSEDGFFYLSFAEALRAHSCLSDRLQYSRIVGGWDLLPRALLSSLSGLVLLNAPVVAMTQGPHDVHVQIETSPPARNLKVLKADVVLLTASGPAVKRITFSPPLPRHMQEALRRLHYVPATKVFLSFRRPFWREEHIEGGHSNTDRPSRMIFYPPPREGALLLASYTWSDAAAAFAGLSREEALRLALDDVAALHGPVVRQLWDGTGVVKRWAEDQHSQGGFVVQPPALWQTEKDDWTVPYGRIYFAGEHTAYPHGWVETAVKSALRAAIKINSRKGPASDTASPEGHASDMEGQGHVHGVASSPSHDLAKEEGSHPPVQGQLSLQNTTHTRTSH
row,SMILES,EC50 [nM]
1,"O=C1C(=O)N(C2CCCC2)CCN1Cc1cc(-c2ccccc2)on1 [Example 104, 1-cyclopentyl-4-((5-phenylisoxazol-3-yl)methyl)piperazine-2,3-dione]",4
2,"O=C1C(=O)N(C2CCC2)CCN1Cc1cnc(-c2cccc(F)c2)s1 [Example 79, 1-cyclobutyl-4-((2-(3-fluorophenyl)thiazol-5-yl)methyl)piperazine-2,3-dione]",5
3,"O=C1C(=O)N(C2CCC2)CCN1Cc1ccc(-c2cc(F)cc(F)c2)nn1 [Example 22, 1-cyclobutyl-4-((6-(3,5-difluorophenyl)pyridazin-3-yl)methyl)piperazine-2,3-dione]",22
4,"O=c1c(=O)n(C2CCC2)ccn1Cc1cc(-c2ccccc2)n[nH]1 [Example 168, 1-cyclobutyl-4-((3-phenyl-1H-pyrazol-5-yl)methyl)-1,4-dihydropyrazine-2,3-dione]",6
5,"O=C1C(=O)N(C2CCCC2)CCN1Cc1nnc(N2CCCCC2)s1 [Example 309, 1-cyclopentyl-4-((5-(piperidin-1-yl)-1,3,4-thiadiazol-2-yl)methyl)piperazine-2,3-dione]",41
6,"O=c1c(=O)n(C2CCC2)ccn1Cc1cc(-c2ccccc2)on1 [Example 56, 1-cyclobutyl-4-((5-phenylisoxazol-3-yl)methyl)-1,4-dihydropyrazine-2,3-dione]",1
7,"CC1(n2ccn(Cc3cc(-c4ccccn4)no3)c(=O)c2=O)CC1 [Example 199, 1-(1-methylcyclopropyl)-4-((3-(pyridin-2-yl)isoxazol-5-yl)methyl)-1,4-dihydropyrazine-2,3-dione]",24
8,"CC(c1ncc(-c2ccccc2)cn1)N1CCN(C2CCC2)C(=O)C1=O (single isomer, unassigned) [Example 134, (R or S)-1-cyclobutyl-4-(1-(5-phenylpyrimidin-2-yl)ethyl)piperazine-2,3-dione]",40
9,"[2H]c1c([2H])c([2H])c(-c2ccc(CN3CCN(C4CCC4)C(=O)C3=O)nn2)c([2H])c1[2H] [Example 80, 1-cyclobutyl-4-((6-(phenyl-d5)pyridazin-3-yl)methyl)piperazine-2,3-dione]",15
10,"O=C1C(=O)N(C2CCCC2)CCN1Cc1cc(-c2ccccc2)n[nH]1 [Example 274, 1-cyclopentyl-4-((3-phenyl-1H-pyrazol-5-yl)methyl)piperazine-2,3-dione]",34
11,"O=c1c(=O)n([C@H]2C[C@H]3C[C@H]3C2)ccn1Cc1nnc(-c2ccccc2F)s1 [Example 45, 1-((cis)-bicyclo[3.1.0]hexan-3-yl)-4-((5-(2-fluorophenyl)-1,3,4-thiadiazol-2-yl)methyl)-1,4-dihydropyrazine-2,3-dione]",5
12,"O=c1c(=O)n(C2CCCC2)ccn1Cc1cc(-c2ccccc2F)on1 [Example 61, 1-cyclopentyl-4-((5-(2-fluorophenyl)isoxazol-3-yl)methyl)-1,4-dihydropyrazine-2,3-dione]",5
13,"N#CC12CC(N3CCN(Cc4nnc(-c5ccccc5)s4)C(=O)C3=O)(C1)C2 [Example 295, 3-(2,3-dioxo-4-((5-phenyl-1,3,4-thiadiazol-2-yl)methyl)piperazin-1-yl)bicyclo[1.1.1]pentane-1-carbonitrile]",53
14,"O=C1C(=O)N(C2CCCC2)CCN1Cc1ccc(N2CCOCC2)nn1 [Example 317, 1-cyclopentyl-4-((6-morpholinopyridazin-3-yl)methyl)piperazine-2,3-dione]",45
15,"O=C1C(=O)N(C2CCCC2)CCN1Cc1ccc(-n2nccn2)nc1 [Example 336, 1-((6-(2H-1,2,3-triazol-2-yl)pyridin-3-yl)methyl)-4-cyclopentylpiperazine-2,3-dione]",20
16,"O=c1c(=O)n(C2CCC2)ccn1Cc1cc(-c2ccccn2)on1 [Example 373, 1-cyclobutyl-4-((5-(pyridin-2-yl)isoxazol-3-yl)methyl)-1,4-dihydropyrazine-2,3-dione]",8
17,"O=C1C(=O)N(C2CCCC2)CCN1Cc1ccc(-c2ccccn2)nn1 [Example 368, 1-cyclopentyl-4-((6-(pyridin-2-yl)pyridazin-3-yl)methyl)piperazine-2,3-dione]",28

row,SMILES,EC50 [nM]
1,"O=c1c(=O)n(C2CCC2)ccn1Cc1cc(-c2ccccc2F)on1 [Example 57, 1-cyclobutyl-4-((5-(2-fluorophenyl)isoxazol-3-yl)methyl)-1,4-dihydropyrazine-2,3-dione]",3
2,"O=c1c(=O)n(C23CC(C2)C3)ccn1Cc1cc(-c2ccccc2)on1 [Example 147, 1-(bicyclo[1.1.1]pentan-1-yl)-4-((5-phenylisoxazol-3-yl)methyl)-1,4-dihydropyrazine-2,3-dione]",2
3,"O=C1C(=O)N(C23CC(F)(C2)C3)CCN1Cc1ccc(-n2nccn2)cn1 [Example 244, 1-((5-(2H-1,2,3-triazol-2-yl)pyridin-2-yl)methyl)-4-(3-fluorobicyclo[1.1.1]pentan-1-yl)piperazine-2,3-dione]",45
4,"O=C1C(=O)N(C2CCCC2)CCN1CCc1cc2ccc(Cl)cc2nn1 [Example 268, 1-(2-(7-chlorocinnolin-3-yl)ethyl)-4-cyclopentylpiperazine-2,3-dione]",15
5,"CC1(n2ccn(Cc3cc(-c4cccnc4)no3)c(=O)c2=O)CC1 [Example 221, 1-(1-methylcyclopropyl)-4-((3-(pyridin-3-yl)isoxazol-5-yl)methyl)-1,4-dihydropyrazine-2,3-dione]",14
6,"O=c1c(=O)n(C2(CF)CC2)ccn1Cc1cc(-c2cccnc2)no1 [Example 246, 1-(1-(fluoromethyl)cyclopropyl)-4-((3-(pyridin-3-yl)isoxazol-5-yl)methyl)-1,4-dihydropyrazine-2,3-dione]",37
7,"O=c1c(=O)n([C@H]2C[C@H]3C[C@H]3C2)ccn1Cc1nnc(-c2cccc(F)c2)s1 [Example 43, 1-((cis)-bicyclo[3.1.0]hexan-3-yl)-4-((5-(3-fluorophenyl)-1,3,4-thiadiazol-2-yl)methyl)-1,4-dihydropyrazine-2,3-dione]",3
8,"N#Cc1ccccc1-c1cc(CN2CCN(C34CC(C3)C4)C(=O)C2=O)no1 [Example 424, 2-(3-((4-(bicyclo[1.1.1]pentan-1-yl)-2,3-dioxopiperazin-1-yl)methyl)isoxazol-5-yl)benzonitrile]",19
9,"O=C1C(=O)N(C2CCCC2)CCN1Cc1nnc(N2CC[C@H](CF)C2)s1 [Example 312, (S)-1-cyclopentyl-4-((5-(3-(fluoromethyl)pyrrolidin-1-yl)-1,3,4-thiadiazol-2-yl)methyl)piperazine-2,3-dione]",69
10,"O=c1c(=O)n(C2CCC2)ccn1Cc1nnc(-c2ccccc2F)s1 [Example 34, 1-cyclobutyl-4-((5-(2-fluorophenyl)-1,3,4-thiadiazol-2-yl)methyl)-1,4-dihydropyrazine-2,3-dione]",34
11,"[2H]C1(n2ccn(Cc3nnc(-c4ccccc4)s3)c(=O)c2=O)CCCC1 [Example 293, 1-(cyclopentyl-1-d)-4-((5-phenyl-1,3,4-thiadiazol-2-yl)methyl)-1,4-dihydropyrazine-2,3-dione]",11
12,"O=C1C(=O)N(C2CCCC2)CCN1Cc1nnc(-n2nccn2)s1 [Example 323, 1-((5-(2H-1,2,3-triazol-2-yl)-1,3,4-thiadiazol-2-yl)methyl)-4-cyclopentylpiperazine-2,3-dione]",157
13,"CC1(n2ccn(Cc3cc(-c4ccccc4)no3)c(=O)c2=O)CCC1 [Example 181, 1-(1-methylcyclobutyl)-4-((3-phenylisoxazol-5-yl)methyl)-1,4-dihydropyrazine-2,3-dione]",10
14,"O=c1c(=O)n(C2CCC2)ccn1Cc1ccc(-c2c(F)cccc2F)nn1 [Example 192, 1-cyclobutyl-4-((6-(2,6-difluorophenyl)pyridazin-3-yl)methyl)-1,4-dihydropyrazine-2,3-dione]",13
15,"O=C1C(=O)N(C2CCC2)CCN1Cc1cnc(-n2nccn2)cn1 [Example 324, 1-((5-(2H-1,2,3-triazol-2-yl)pyrazin-2-yl)methyl)-4-cyclobutylpiperazine-2,3-dione]",53
16,"O=c1c(=O)n(C23CC(F)(C2)C3)ccn1Cc1ccc(-c2ccccn2)cn1 [Example 229, 1-([2,3′-bipyridin]-6′-ylmethyl)-4-(3-fluorobicyclo[1.1.1]pentan-1-yl)-1,4-dihydropyrazine-2,3-dione]",54
17,"O=C1C(=O)N(C2CCCC2)CCN1Cc1ncc(-c2cc(F)ccn2)cn1 [Example 343, 1-cyclopentyl-4-((5-(4-fluoropyridin-2-yl)pyrimidin-2-yl)methyl)piperazine-2,3-dione]",133
